Measurements as given in patent US12371464B2, “Polypeptides and uses thereof” (MEDIMMUNE LIMITED, priority 2020, dated 2025).
Numbered stars: 1 amine (or outer) side, 2 acyl side, 3 side chain; on linkers, the order of the positions; unused ones are H or OH. Bridge positions count the residues as written; N and C are the ends. Square brackets hold non-standard residues; d marks the D form. Side chains are listed from the residue outwards. Peptide text beside a SMILES is read from it. * marks the point of attachment. C18 diacid = O=C(O)CCCCCCCCCCCCCCCCC(=O)*; γGlu = O=C(O)[C@H](CCC(=O)[*:2])N[*:1]; αMeF = C[C@](N)(Cc1ccccc1)C(=O)O; Aib = CC(C)(N)C(=O)O

Key:
[1] = Thioflavin T fibrillation assay; type: physicochemical; conditions: 1 mg/mL in 25 mM sodium acetate buffer pH 4.0, 37° C., 6 days, orbital shaking; >144 h = no increase
Outline: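 Peptides at 1 mg/mL in 25 mM sodium acetate pH 4.0 were mixed with ThT (0.25 mM stock) and held 6 days at 37 °C with intermittent orbital shaking at 500–750 rpm. Fluorescence (ex 444/em 480 nm) was read every 30 min, with buffer baseline correction and 5 replicates. Value: mean time to a detectable fluorescence increase.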

[2] = tested on: lean rats; assay: Rat acute food intake study; type: in vivo, Sprague Dawley rats; conditions: 20 nmol/kg subcutaneously
Method: Male Sprague Dawley rats were obtained from Taconic Denmark, ApS at approximately 7 weeks of age. . . . Rats were implanted with a microchip for identification, housed 4/cage with enrichment, free access to food and water, and allowed one week acclimatisation while non-invasive characterization was performed. Rats were on a 12:12 light:dark cycle that switches at 1 pm:1 am. Food intake was monitored via the HM2 system (Lafayette Instrument) that allows for monitoring in a home cage. As each rat enters an access tunnel to feed, an IR beam is broken, and the implanted microchip is read. Resulting changes to food weight is then assigned to the specific animal. Social order has shown no impact to overall feeding patterns and amounts.
Rats were sorted into groups based on Day-1 body weight and 24-hour accumulated food intake (n=7 per group). On Day 0 rats were weighed, then fasted for 6 hours. Thirty (30) minutes prior to the reintroduction of food, rats were dosed subcutaneously (5 ml/kg) with 20 nmol/kg of test compound or 60 nmol/kg peptide 1 (pramlintide) diluted in an appropriate vehicle, after which food was returned, and lights went out. Automated food intake was monitored for the following 3 days, and rats were weighed once per day.
Food intake per rat was batched into 1-hour intervals and integrated into Gubra's GubraView data management system. Discrete food intake data was exported into MS Excel from which cumulative food intake data was generated. Cumulative food intake data was then transposed into GraphPad Prism (v8.0.1) for analysis of dark period feeding

Row | Structure (SMILES) | Time taken to detect increase in fluorescence intensity [1] [h] | Cummulative food intake (% vehicle treated intake) At 48 h [2] [% vehicle treated intake] | Cummulative food intake (% vehicle treated intake) At 12 h [2] [% vehicle treated intake] | further results
1 | CC[C@H](C)[C@H](NC(=O)[C@@H]1CCCN1C(=O)CNC(=O)[C@H](Cc1ccccc1)NC(=O)[C@H](CC(N)=O)NC(=O)C(C)(C)NC(=O)[C@H](CO)NC(=O)[C@H](CO)NC(=O)[C@H](Cc1c[nH]cn1)NC(=O)[C@@H](NC(=O)[C@H](CC(C)C)NC(=O)[C@H](Cc1ccccc1)NC(=O)[C@H](CC(N)=O)NC(=O)[C@H](C)NC(=O)[C@H](CC(C)C)NC(=O)[C@H](CCCNC(=N)N)NC(=O)[C@H](CCC(N)=O)NC(=O)[C@@H](NC(=O)[C@H](C)NC(=O)[C@@H]1CSSC[C@H](NC(=O)[C@H](CCCCN)NC(=O)[C@@H](N)CCCCNC(=O)CC[C@H](NC(=O)CCCCCCCCCCCCCCCCC(=O)O)C(=O)O)C(=O)N[C@@H](CC(N)=O)C(=O)N[C@@H]([C@@H](C)O)C(=O)N[C@@H](C)C(=O)N[C@@H]([C@@H](C)O)C(=O)N1)[C@@H](C)O)C(C)C)C(=O)N[C@@H](CC(C)C)C(=O)N1CCC[C@H]1C(=O)N1CCC[C@H]1C(=O)N[C@H](C(=O)N[C@@H](CC(N)=O)C(=O)N[C@H](C(=O)NCC(=O)N[C@@H](CO)C(=O)N[C@@H](CC(N)=O)C(=O)N[C@H](C(=O)N[C@@H](Cc1ccc(O)cc1)C(N)=O)[C@@H](C)O)C(C)C)[C@@H](C)O [Peptide 35, K(γE-C18diacid)K[CNTATC]ATQRLANFLVHSS(Aib)NFGPILPPTNVGSNTY-amide] (H-K([γGlu-C18 diacid])KCNTATCATQRLANFLVHSS[Aib]NFGPILPPTNVGSNTY-NH2; disulfide 3-8; N-terminus assumed) | – | 72 | – | –
2 | CC[C@H](C)[C@H](NC(=O)[C@@H]1CCCN1C(=O)CNC(=O)[C@H](Cc1ccccc1)NC(=O)[C@H](CC(N)=O)NC(=O)[C@H](CC(N)=O)NC(=O)[C@H](CO)NC(=O)[C@H](CO)NC(=O)[C@H](Cc1c[nH]cn1)NC(=O)C(C)(C)NC(=O)[C@H](CC(C)C)NC(=O)[C@H](Cc1ccccc1)NC(=O)[C@H](CC(N)=O)NC(=O)[C@H](C)NC(=O)[C@H](CC(C)C)NC(=O)[C@H](CCCNC(=N)N)NC(=O)[C@H](CCC(N)=O)NC(=O)[C@@H](NC(=O)[C@H](C)NC(=O)[C@@H]1CSSC[C@H](NC(=O)[C@@H](N)CCCCNC(=O)CC[C@H](NC(=O)CCCCCCCCCCCCCCCCC(=O)O)C(=O)O)C(=O)N[C@@H](CC(N)=O)C(=O)N[C@@H]([C@@H](C)O)C(=O)N[C@@H](C)C(=O)N[C@@H]([C@@H](C)O)C(=O)N1)[C@@H](C)O)C(=O)N[C@@H](CC(C)C)C(=O)N1CCC[C@H]1C(=O)N1CCC[C@H]1C(=O)N[C@H](C(=O)N[C@@H](CC(N)=O)C(=O)N[C@H](C(=O)NCC(=O)N[C@@H](CO)C(=O)N[C@@H](CC(N)=O)C(=O)N[C@H](C(=O)N[C@@H](Cc1ccc(O)cc1)C(N)=O)[C@@H](C)O)C(C)C)[C@@H](C)O [Peptide 149] (H-K([γGlu-C18 diacid])CNTATCATQRLANFL[Aib]HSSNNFGPILPPTNVGSNTY-NH2; disulfide 2-7; N-terminus assumed) | – | – | 31 | –
3 | CC[C@H](C)[C@H](NC(=O)[C@@H]1CCCN1C(=O)CNC(=O)[C@H](Cc1ccccc1)NC(=O)[C@H](CC(N)=O)NC(=O)C(C)(C)NC(=O)[C@H](CO)NC(=O)[C@H](CO)NC(=O)[C@H](Cc1c[nH]cn1)NC(=O)[C@@H](NC(=O)[C@H](CC(C)C)NC(=O)[C@H](Cc1ccccc1)NC(=O)[C@H](CCC(=O)O)NC(=O)[C@H](C)NC(=O)[C@H](CC(C)C)NC(=O)[C@H](CCCNC(=N)N)NC(=O)[C@H](CCC(N)=O)NC(=O)[C@@H](NC(=O)[C@H](C)NC(=O)[C@@H]1CSSC[C@H](NC(=O)[C@H](CCCCN)NC(=O)[C@@H](N)CCCCNC(=O)CC[C@H](NC(=O)CCCCCCCCCCCCCCCCC(=O)O)C(=O)O)C(=O)N[C@@H](CC(N)=O)C(=O)N[C@@H]([C@@H](C)O)C(=O)N[C@@H](C)C(=O)N[C@@H]([C@@H](C)O)C(=O)N1)[C@@H](C)O)C(C)C)C(=O)N[C@@H](CC(C)C)C(=O)N1CCC[C@H]1C(=O)N1CCC[C@H]1C(=O)N[C@H](C(=O)N[C@@H](CC(N)=O)C(=O)N[C@H](C(=O)NCC(=O)N[C@@H](CO)C(=O)N[C@@H](CC(N)=O)C(=O)N[C@H](C(=O)N[C@@H](Cc1ccc(O)cc1)C(N)=O)[C@@H](C)O)C(C)C)[C@@H](C)O [Peptide 38, K(γE-C18diacid)K[CNTATC]ATQRLAEFLVHSS(Aib)NFGPILPPTNVGSNTY-amide] (H-K([γGlu-C18 diacid])KCNTATCATQRLAEFLVHSS[Aib]NFGPILPPTNVGSNTY-NH2; disulfide 3-8; N-terminus assumed) | – | – | 6.9 | Cummulative food intake (% vehicle treated intake) At 24 h ([2]; at 24 h): 5.5 % vehicle treated intake

More lines, main results first:

Row | Time taken to detect increase in fluorescence intensity [1] [h] | Structure (SMILES) | Cummulative food intake (% vehicle treated intake) At 48 h [2] [% vehicle treated intake] | Cummulative food intake (% vehicle treated intake) At 12 h [2] [% vehicle treated intake] | further results
4 | >144 | CC[C@H](C)[C@H](NC(=O)[C@@H]1CCCN1C(=O)CNC(=O)[C@](C)(Cc1ccccc1)NC(=O)[C@H](CC(N)=O)NC(=O)[C@H](CC(N)=O)NC(=O)[C@H](CO)NC(=O)[C@H](CO)NC(=O)[C@H](Cc1c[nH]cn1)NC(=O)[C@H](CCCNC(=N)N)NC(=O)[C@H](CC(C)C)NC(=O)[C@H](Cc1ccccc1)NC(=O)[C@H](CC(N)=O)NC(=O)[C@H](C)NC(=O)[C@H](CC(C)C)NC(=O)[C@H](CCCNC(=N)N)NC(=O)[C@H](CCC(N)=O)NC(=O)[C@@H](NC(=O)[C@H](C)NC(=O)[C@@H]1CSSC[C@H](NC(=O)[C@H](CCCCN)NC(=O)[C@@H](N)CCCCNC(=O)CC[C@H](NC(=O)CCCCCCCCCCCCCCCCC(=O)O)C(=O)O)C(=O)N[C@@H](CC(N)=O)C(=O)N[C@@H]([C@@H](C)O)C(=O)N[C@@H](C)C(=O)N[C@@H]([C@@H](C)O)C(=O)N1)[C@@H](C)O)C(=O)N[C@@H](CC(C)C)C(=O)N1CCC[C@H]1C(=O)N1CCC[C@H]1C(=O)N[C@H](C(=O)N[C@@H](CCC(=O)O)C(=O)N[C@H](C(=O)NCC(=O)N[C@@H](CO)C(=O)N[C@@H](CC(N)=O)C(=O)N[C@H](C(=O)N[C@@H](Cc1ccc(O)cc1)C(N)=O)[C@@H](C)O)C(C)C)[C@@H](C)O [Peptide 15, K(γE-C18diacid)K[CNTATC]ATQRLANFLRHSSNN(αMePhe)GPILPPTEVGSNTY-amide] (H-K([γGlu-C18 diacid])KCNTATCATQRLANFLRHSSNN[αMeF]GPILPPTEVGSNTY-NH2; disulfide 3-8; N-terminus assumed) | 51 | – | –
5 | >144 | CC[C@H](C)[C@H](NC(=O)[C@@H]1CCCN1C(=O)CNC(=O)[C@](C)(Cc1ccccc1)NC(=O)[C@H](CC(N)=O)NC(=O)[C@H](CC(N)=O)NC(=O)[C@H](CO)NC(=O)[C@H](CO)NC(=O)[C@H](Cc1c[nH]cn1)NC(=O)[C@@H](NC(=O)[C@H](CC(C)C)NC(=O)[C@H](Cc1ccccc1)NC(=O)[C@H](CC(N)=O)NC(=O)[C@H](C)NC(=O)[C@H](CC(C)C)NC(=O)[C@H](CCCNC(=N)N)NC(=O)[C@H](CCC(N)=O)NC(=O)[C@@H](NC(=O)[C@H](C)NC(=O)[C@@H]1CSSC[C@H](NC(=O)[C@@H](N)CCCCNC(=O)CC[C@H](NC(=O)CC[C@H](NC(=O)CCCCCCCCCCCCCCCCC(=O)O)C(=O)O)C(=O)O)C(=O)N[C@@H](CC(N)=O)C(=O)N[C@@H]([C@@H](C)O)C(=O)N[C@@H](C)C(=O)N[C@@H]([C@@H](C)O)C(=O)N1)[C@@H](C)O)C(C)C)C(=O)N[C@@H](CC(C)C)C(=O)N1CCC[C@H]1C(=O)N1CCC[C@H]1C(=O)N[C@H](C(=O)N[C@@H](CCCNC(=N)N)C(=O)N[C@H](C(=O)NCC(=O)N[C@@H](CO)C(=O)N[C@@H](CC(N)=O)C(=O)N[C@H](C(=O)N[C@@H](Cc1ccc(O)cc1)C(N)=O)[C@@H](C)O)C(C)C)[C@@H](C)O [Peptide 24, K(γE-γE-C18diacid)[CNTATC]ATQRLANFLVHSSNN(αMePhe)GPILPPTRVGSNTY-amide] (H-K([γGlu-γGlu-C18 diacid])CNTATCATQRLANFLVHSSNN[αMeF]GPILPPTRVGSNTY-NH2; disulfide 2-7; N-terminus assumed) | – | – | –
6 | >144 | CC[C@H](C)[C@H](NC(=O)[C@@H]1CCCN1C(=O)CNC(=O)[C@H](Cc1ccccc1)NC(=O)[C@H](CC(N)=O)NC(=O)C(C)(C)NC(=O)[C@H](CO)NC(=O)[C@H](CO)NC(=O)[C@H](Cc1c[nH]cn1)NC(=O)[C@H](CCCNC(=N)N)NC(=O)[C@H](CC(C)C)NC(=O)[C@H](Cc1ccccc1)NC(=O)[C@H](CC(N)=O)NC(=O)[C@H](C)NC(=O)[C@H](CC(C)C)NC(=O)[C@H](CCCNC(=N)N)NC(=O)[C@H](CCC(N)=O)NC(=O)[C@@H](NC(=O)[C@H](C)NC(=O)[C@@H]1CSSC[C@H](NC(=O)[C@@H](N)CCCCNC(=O)CC[C@H](NC(=O)CCCCCCCCCCCCCCCCC(=O)O)C(=O)O)C(=O)N[C@@H](CC(N)=O)C(=O)N[C@@H]([C@@H](C)O)C(=O)N[C@@H](C)C(=O)N[C@@H]([C@@H](C)O)C(=O)N1)[C@@H](C)O)C(=O)N[C@@H](CC(C)C)C(=O)N1CCC[C@H]1C(=O)N1CCC[C@H]1C(=O)N[C@H](C(=O)N[C@@H](CCC(=O)O)C(=O)N[C@H](C(=O)NCC(=O)N[C@@H](CO)C(=O)N[C@@H](CC(N)=O)C(=O)N[C@H](C(=O)N[C@@H](Cc1ccc(O)cc1)C(N)=O)[C@@H](C)O)C(C)C)[C@@H](C)O [Peptide 44, K(γE-C18diacid)[CNTATC]ATQRLANFLRHSS(Aib)NFGPILPPTEVGSNTY-amide] (H-K([γGlu-C18 diacid])CNTATCATQRLANFLRHSS[Aib]NFGPILPPTEVGSNTY-NH2; disulfide 2-7; N-terminus assumed) | – | – | –
